Assay results reported in the supplement of paper PMC4862054.

Columns and labels:
Conditions in all cases: incubation time: 72 h
Hs578T [1] = assay: normalised response (% of control), CellTiter-Glo; higher = more viable cells (100 = DMSO, 0 = benzethonium chloride kill control)
Description: (§1)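 DSRT, 72 h incubation, CellTox Green / CellTiter-Glo readout. Signal is normalised to DMSO and benzethonium chloride controls. Value is the normalised response at dose 3.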

MCF-10A [2] = assay: as above
Description: as §1

CAL-148 [3] = assay: as above
Description: as §1

MDA-MB-231 [4] = assay: as above
Description: as §1

SK-BR-3 = assay: as above
Description: as §1

CAL-120 [5] = assay: as above
Description: as §1

HCC1143 [6] = assay: as above
Description: as §1

MFM-223 [7] = assay: as above
Description: as §1

MDA-MB-468 [8] = assay: as above
Description: as §1

BT-549 [9] = assay: as above
Description: as §1

BT-474 [10] = assay: as above
Description: as §1

CAL-51 [11] = assay: as above
Description: as §1

MDA-MB-436 [12] = assay: as above
Description: as §1

MDA-MB-453 [13] = assay: as above
Description: as §1

CAL-85-1 [14] = assay: as above
Description: as §1

HDQ-P1 [15] = assay: as above
Description: as §1

HCC1937 [16] = assay: as above
Description: as §1

DU-4475 [17] = assay: as above
Description: as §1

HCC1599 [18] = assay: as above
Description: as §1

MCF-10A [19] = assay: normalised response (% of control), CellTox Green; higher = less cell death (100 = DMSO, 0 = benzethonium chloride kill control)
In short: (§2)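 Breast cancer cell lines (20 µl suspension) were seeded into 384-well plates holding compound at 5 concentrations in 10-fold steps over a compound-specific 10,000-fold range, then incubated 72 h. CellTox Green fluorescence (485/520 nm) was read first, then CellTiter-Glo luminescence after 10 min at room temperature. Each plate was normalised to 0.1 % DMSO (100) and a positive kill control (0). Each value is the normalised signal at a single concentration of the series.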

CAL-148 [20] = assay: as above
In short: as §2

MDA-MB-231 [21] = assay: as above
In short: as §2

CAL-120 [22] = assay: as above
In short: as §2

HCC1143 [23] = assay: as above
In short: as §2

MDA-MB-468 [24] = assay: as above
In short: as §2

BT-549 [25] = assay: as above
In short: as §2

BT-474 [26] = assay: as above
In short: as §2

CAL-51 [27] = assay: as above
In short: as §2

MDA-MB-436 [28] = assay: as above
In short: as §2

MDA-MB-453 [29] = assay: as above
In short: as §2

CAL-85-1 [30] = assay: as above
In short: as §2

HDQ-P1 [31] = assay: as above
In short: as §2

HCC1937 [32] = assay: as above
In short: as §2

DU-4475 [33] = assay: as above
In short: as §2

HCC1599 [34] = assay: as above
In short: as §2

MFM-223 [35] = assay: as above
In short: as §2

Hs578T [36] = assay: as above
In short: as §2

Row | SMILES | normalised response (Hs578T [1]) | normalised response (MCF-10A [2]) | normalised response (CAL-148 [3]) | normalised response (MDA-MB-231 [4]) | normalised response (SK-BR-3) | normalised response (CAL-120 [5]) | normalised response (HCC1143 [6]) | normalised response (MFM-223 [7]) | normalised response (MDA-MB-468 [8]) | normalised response (BT-549 [9]) | normalised response (BT-474 [10]) | normalised response (CAL-51 [11]) | normalised response (MDA-MB-436 [12]) | normalised response (MDA-MB-453 [13]) | normalised response (CAL-85-1 [14]) | normalised response (HDQ-P1 [15]) | normalised response (HCC1937 [16]) | normalised response (DU-4475 [17]) | normalised response (HCC1599 [18]) | normalised response (MCF-10A [19]) | normalised response (CAL-148 [20]) | normalised response (MDA-MB-231 [21]) | normalised response (CAL-120 [22]) | normalised response (HCC1143 [23]) | normalised response (MDA-MB-468 [24]) | normalised response (BT-549 [25]) | normalised response (BT-474 [26]) | normalised response (CAL-51 [27]) | normalised response (MDA-MB-436 [28]) | normalised response (MDA-MB-453 [29]) | normalised response (CAL-85-1 [30]) | normalised response (HDQ-P1 [31]) | normalised response (HCC1937 [32]) | normalised response (DU-4475 [33]) | normalised response (HCC1599 [34]) | normalised response (MFM-223 [35]) | normalised response (Hs578T [36])
1 | CC(C)(C)c1nc(-c2cccc(NS(=O)(=O)c3c(F)cccc3F)c2F)c(-c2ccnc(N)n2)s1 [Dabrafenib] (25 nM) | 104% | 115% | 108% | 100% | 110% | 99.8% | 118% | 106% | 94.7% | 104% | 99.2% | 89.9% | 111% | 96.7% | 96.6% | 103% | 102% | 82.6% | 105% | 108% | 106% | 114% | 105% | 107% | 119% | 98.8% | 103% | 110% | 79.1% | 105% | 107% | 95.9% | 94.8% | 99.8% | 93.3% | – | –
2 | CO[C@@]12[C@H](COC(N)=O)C3=C(C(=O)C(C)=C(N)C3=O)N1C[C@@H]1N[C@@H]12 [Mitomycin C] (100 nM) | 98.9% | 92.2% | 89.6% | 93.5% | 94% | 91.8% | 98.2% | 93.8% | 91.3% | 96.5% | 95.2% | 101% | 90.8% | 94.1% | 101% | 104% | 93.9% | 99% | 95.7% | 81.8% | 60.3% | 97% | 101% | 90% | – | 99.5% | 100% | 73.6% | 83.8% | 102% | 93.3% | – | 84.9% | 95.3% | 91.5% | 99.2% | –
3 | O=C(CCCCCCC(=O)Nc1ccccc1)NO [Vorinostat] (100 nM) | 98.2% | 101% | 108% | 93.6% | 94.5% | 96.1% | 98.8% | 97.8% | 110% | 100% | 96.2% | 69.6% | 97% | 101% | 105% | 97.1% | 97.7% | 99.6% | 113% | 91.4% | 102% | 92.3% | 90.8% | 109% | – | 96.8% | 71.5% | 86.3% | 74.1% | 102% | 94.8% | 102% | 102% | 97.7% | 95.5% | 99.6% | 108%
4 | CCNC(=O)CCC/C=C\C[C@@H]1[C@@H](/C=C/[C@@H](O)CCc2ccccc2)[C@H](O)C[C@@H]1O [Bimatoprost] (55 nM) | 94.9% | 90.1% | 95.8% | 100% | 91.7% | 99.7% | 99.7% | 104% | 94% | 98.3% | 97.2% | 90.4% | 100% | 99.1% | 92.4% | 94.2% | 97.1% | 94.7% | 99.4% | 89.2% | 95% | 99.8% | 98.3% | 110% | – | 94.8% | 98.7% | 103% | – | 97.6% | 83.9% | 64.3% | 76.7% | 96.9% | 97.2% | 101% | 103%
5 | COc1cc(Nc2c(C#N)cnc3cc(OCCCN4CCN(C)CC4)c(OC)cc23)c(Cl)cc1Cl [Bosutinib] (100 nM) | 99% | 77.4% | 104% | 100% | 109% | 100% | 101% | 99.3% | 95.4% | 103% | 104% | 100% | 103% | 103% | 98.3% | 85.9% | 95.5% | 97.5% | 93.1% | 103% | 105% | 104% | 99.3% | 76.2% | 148% | 97.1% | 101% | 101% | 104% | 100% | 117% | 101% | 54.8% | 109% | 101% | 101% | –
